Data as given in ChEMBL document CHEMBL3593192, “Synthesis and biological evaluation of novel histone deacetylases inhibitors with nitric oxide releasing activity” (Bioorg Med Chem, 2015).
The source made the active and inactive calls. No cut-off for these calls is given here.

Tests used:
[1] = tested on: U-937; assay: Cytotoxicity against human U937 cells assessed as inhibition of cell proliferation after 48 hrs by MTT assay; format: functional, cell-based; conditions: U-937, 48 h
[2] = tested on: PC-3; assay: cells; format: functional, cell-based; conditions: Homo sapiens, PC-3, 48 h
Description: Cytotoxicity against human PC3 cells assessed as inhibition of cell proliferation after 48 hrs by MTT assay

[3] = molecular target: Histone deacetylase (HDAC1 and HDAC2) (Homo sapiens, UniProt Q13547+Q92769); assay: Inhibition of HDAC1/2 in human HeLa cells using Boc-Lys (acetyl)-AMC as substrate preincubated for 30 mins followed by substrate addition measured after 30 mins by fluorescence assay; format: cell-based
[4] = tested on: B16; assay: cells; format: functional, cell-based; conditions: Mus musculus, B16, 48 h
Description: Cytotoxicity against mouse B16 cells assessed as inhibition of cell proliferation after 48 hrs by MTT assay

[5] = tested on: HCT-116; assay: cells; format: functional, cell-based; conditions: Homo sapiens, HCT-116, 48 h
[6] = cells; format: functional, cell-based, ES2; conditions: Homo sapiens, ES-2, 48 h
Description: Cytotoxicity against human ES2 cells assessed as inhibition of cell proliferation after 48 hrs by MTT assay

[7] = tested on: HEL; assay: cells; format: functional, cell-based; conditions: Homo sapiens, 48 h
Description: Cytotoxicity against HEL cells assessed as inhibition of cell proliferation after 48 hrs by MTT assay

[8] = cells; format: functional, cell-based; conditions: Homo sapiens, KG-1, 48 h
Description: Cytotoxicity against human KG1 cells assessed as inhibition of cell proliferation after 48 hrs by MTT assay

[9] = tested on: HCT-116; assay: Induction of nitric oxide production in human HCT116 cells at 100 uM after 5 hrs by Griess assay; format: functional, cell-based
[10] = tested on: HeLa; assay: cells; format: functional, cell-based; conditions: Homo sapiens, 48 h
Description: Cytotoxicity against human HeLa cells assessed as inhibition of cell proliferation after 48 hrs by MTT assay

[11] = tested on: HCT-116; assay: Cytotoxicity against human HCT116 cells assessed as inhibition of cell proliferation after 48 hrs by MTT assay in presence of SAHA; format: functional, cell-based; conditions: HCT-116, 48 h
[12] = tested on: HCT-116; assay: Cytotoxicity against nitric oxide scavenger hemoglobin-treated human HCT116 cells assessed as inhibition of cell proliferation at 2 uM after 24 hrs by MTT assay; format: functional, cell-based

Row | SMILES | IC50 [2] [µM] | IC50 [3] [µM] | IC50 [4] [µM] | IC50 [5] [µM] | IC50 [6] [µM] | IC50 [7] [µM] | IC50 [8] [µM] | IC50 [10] [µM] | IC50 [1] [µM] | Activity [9] | IC50 [11] [µM] | inhibition [12]
1 | O=C(CCCCCCC(=O)Nc1ccccc1)NO [VORINOSTAT] |  |  |  |  |  |  |  |  | 4.82 |  |  | 
2 | O=C(CCCCCOC(=O)c1ccc2c(c1)no[n+]2[O-])NO | 12.4 | 0.437 | 30.2 | 3.36 | 20.6 | 11.6 | 3.69 | 17.3 | 33.4 | Active |  | 
3 | O=C(CCCCOC(=O)c1cccc2c1no[n+]2[O-])NO | 14.2 | 0.2576 | 30.5 | 2.73 | 44.4 | 3.14 | 6.69 | 20.2 | 11.3 |  |  | 
4 | O=C(O)c1cccc2c1no[n+]2[O-] |  | > 1000 |  | 64 |  |  |  |  |  | Active | 8.52 | 
5 | O=C(CCCCCCOC(=O)c1ccc2c(c1)no[n+]2[O-])NO | 0.95 | 0.0184 | 4.97 | 1.09 | 5.07 | 1.26 | 0.37 | 9.18 | 12.4 | Active |  | inactive
6 | O=C(CCCCOC(=O)c1ccc2c(c1)no[n+]2[O-])NO | 12.7 | 2.207 | 24 | 2.63 | 25 | 1.21 | 8.19 | 15.9 | 19.9 |  |  | 
7 | O=C(CCCOC(=O)c1ccc2c(c1)no[n+]2[O-])NO | 6.58 | 5.5697 | 22.2 | 2.06 | 27.1 | 2.09 | 4.02 | 17 | 13 |  |  | 
8 | O=C(CCCCCCCOC(=O)c1cccc2c1no[n+]2[O-])NO | > 80 | 0.1373 | > 80 | > 80 | > 80 | 12.1 | 0.53 | 34.2 | > 80 |  |  | 
9 | O=C(O)c1ccc2c(c1)no[n+]2[O-] |  | > 1000 |  | 55.8 |  |  |  |  |  | Active | 11.5 | 

Second part, led by results:

Row | IC50 [2] [µM] | IC50 [3] [µM] | IC50 [4] [µM] | IC50 [5] [µM] | IC50 [6] [µM] | IC50 [7] [µM] | IC50 [8] [µM] | IC50 [10] [µM] | SMILES | IC50 [1] [µM] | Activity [9] | IC50 [11] [µM] | inhibition [12]
10 | 1.39 | 0.1804 | 7.99 | 2.29 | 9.23 | 1.5 | 5.21 | 5.31 | O=C(CCCCCCCOC(=O)c1ccc2c(c1)no[n+]2[O-])NO | 11.9 | Active |  | 
11 | 13.4 | 6.8072 | > 80 | 16.2 | 73.8 | 6.6 | 12.4 | 72 | O=C(CCCOC(=O)c1cccc2c1no[n+]2[O-])NO | 53.9 |  |  | 
12 | 9.37 | 0.0128 | 18.2 | 1.09 | 21.2 | 3.71 | 2.98 | 27.2 | O=C(CCCCCCOC(=O)c1cccc2c1no[n+]2[O-])NO | 34.6 | Active |  | inactive
13 | 16.9 | 0.017 | 27.9 | 2.81 | 66.3 | 3.74 | 12.4 | 42.1 | O=C(CCCCCOC(=O)c1cccc2c1no[n+]2[O-])NO | 21.6 | Active |  | 
